Here are results for three compounds from patent EP0188781A1, “1-Oxa-1-dethia-cephalosporin compounds and antibacterial agent comprising the same” (Merck & Co., Inc., priority 1984, dated 1986).

Series [1] relates to Pseudomonas aeruginosa MB3833. As to the kind of experiment: Minimum inhibitory concentration (MIC) in vitro, antibacterial spectrum. It counts as cell-based.
Series [2] deals with Salmonella typhimurium LT-2. The series is described as above. It counts as cell-based.
The next series concerns Escherichia coli GN206. The description is as above. It is filed as cell-based.
The subject of a further series is Pseudomonas aeruginosa. Kind of series: Antibacterial activity in vitro, summary in words. It is filed as cell-based. The note with it: statement in words on Table 1. The source says: Besides, the compounds of Examples 1, 2, 4, 5 and 7 advantageously are also effective against Pseudomonas aeruginosa.
The nature of series [3]: Concentration in serum after subcutaneous administration to mice, bioassay with Escherichia coli. Particulars: mouse, sc, 25 mg/kg subcutaneously; for concentration at 0.5 h: 1/2 hour; for concentration at 0.25 h: 1/4 hour; for concentration at 5 min: 1/12 hour. It is filed as in vivo. The source says: For the serum which was separated from the blood samples, the concentration in the serum of the compound administered was bioassayed using Escherichia coli as assay microorganism.

The subject of the next series is Proteus mirabilis GN79. As to the kind of experiment: Minimum inhibitory concentration (MIC) in vitro, antibacterial spectrum. It is filed as cell-based.
Series [4] relates to Serratia marcescens No. 2. The description is as above. It counts as cell-based.
For a further series, the system named is Streptococcus faecalis. As to the kind of experiment: Antibacterial activity in vitro, summary in words. It counts as cell-based. The note with it: statement in words on Table 1.
In series [5] the test system is Pseudomonas aeruginosa MB3829. Kind of series: Minimum inhibitory concentration (MIC) in vitro, antibacterial spectrum. It is filed as cell-based.
Series [6] relates to Streptococcus faecalis W-73. Described as above. It is filed as cell-based.
The test system of series [7] is Streptococcus faecalis ATCC8043. Described as above. It is filed as cell-based.
The subject of series [8] is Streptococcus faecalis W-74. The series is described as above. It counts as cell-based.
A further series has as its system Proteus vulgaris GN76. Described as above. It is filed as cell-based.
Series [9] concerns Pseudomonas aeruginosa E-2. Described as above. It counts as cell-based.
The test system of series [10] is Staphylococcus aureus Smith. The series is described as above. It is filed as cell-based.
The subject of another series is Proteus rettgeri GN624. The series is described as above. It counts as cell-based.
For series [11], the system named is Streptococcus faecalis W-75. The description is as above. It counts as cell-based.
Series [12] relates to Staphylococcus aureus 209 P JC-1. The series is described as above. It counts as cell-based.
Series [13] concerns Escherichia coli NIHJ JC-2. Described as above. It is filed as cell-based.

`CCN1CCN(C(=O)NC(C(=O)N[C@@H]2C(=O)N3C(C(=O)O)=C(CSc4nc(=O)c(O)nn4C)[C@H](C)O[C@H]23)c2csc(N)n2)C(=O)C1=O` (single isomer, unassigned) [Compound No. 5]: the “Minimum inhibitory concentration (MIC)” value is 3.13 in series [1]; 0.10 in series [2]; 1.56 with Escherichia coli GN206; 0.78 in the series with Proteus mirabilis GN79; 0.39 in series [4]; 1.56 in series [5]. Further, the “Minimum inhibitory concentration (MIC)” value came out at 25 in [6]; 50 in series [7]; 6.25 in series [8]; 0.025 in the series on Proteus vulgaris GN76; 3.13 in series [9]; 3.13 in series [10]. The “Minimum inhibitory concentration (MIC)” value worked out at 0.78 in the series with Proteus rettgeri GN624, 3.13 in series [11], 1.56 in [12] and 0.10 in series [13]. The “effective against Pseudomonas aeruginosa” value with Pseudomonas aeruginosa is “effective”. This compound displayed a concentration at 0.5 h in series [3] of 25000 ng/mL. Also, the concentration at 0.25 h in series [3] was 44000 ng/mL. This compound returned a concentration at 5 min in [3] of 24000 ng/mL. Besides, in series [3], the concentration at 1 h is 10000 ng/mL. The “effective against Streptococcus faecalis” value in the series with Streptococcus faecalis was “effective”.

With `CO/N=C(\C(=O)N[C@@H]1C(=O)N2C(C(=O)O)=C(CSc3nc(=O)c(O)nn3C)[C@H](C)O[C@H]12)c1csc(N)n1` [Compound No. 1, (6R,7R)-7[(Z)-2-(2-aminothiazol-4-yl)-2-(methoxyimino)acetamido]-(2S)-2-methyl-3-(2,5-dihydro-6-hydroxy-2-methyl-5-oxo-1,2,4-triazin-3-yl)thiomethyl-l-oxa-l-dethia-ceph-3-em-4-carboxylic acid], the “Minimum inhibitory concentration (MIC)” value turned out to be 6.25 in [1]; 0.05 in series [2]; 0.78 with Escherichia coli GN206; 0.025 in the series on Proteus mirabilis GN79; 0.39 in [4]; 6.25 in [5]. Moreover, the “Minimum inhibitory concentration (MIC)” value in [6] is recorded as 50; in series [7], 6.25; in series [8], 6.25; with Proteus vulgaris GN76 it was 0.10; in [9], 12.5; in series [10] it was 1.56. In addition, the “Minimum inhibitory concentration (MIC)” value with Proteus rettgeri GN624 amounted to 0.78; in series [11] it was 0.20; in series [12], 0.78; in [13] it was 0.10. Besides, the “effective against Pseudomonas aeruginosa” value in the series with Pseudomonas aeruginosa is listed as “effective”. Besides, the concentration at 0.5 h in [3] was found to be 41000 ng/mL. Besides, in [3], the concentration at 0.25 h was determined as 47700 ng/mL. The concentration at 5 min in series [3] came to 27000 ng/mL. The compound also came in with a concentration at 1 h in series [3] of 24800 ng/mL. Further, in the series with Streptococcus faecalis, the “effective against Streptococcus faecalis” value is listed as “effective”.

On to `CCO/N=C(\C(=O)N[C@@H]1C(=O)N2C(C(=O)O)=C(CSc3nc(=O)c(O)nn3C)[C@H](C)O[C@H]12)c1csc(N)n1` [Compound No. 2, (6R,7R)-7-[(z)-2-(2-aminothiazol-4-yl)-2-(ethoxyimino)acetamido]-(2S)-2-methyl-3-(2,5-dihydro-6-hydroxy-2-methyl-5-oxo-1,2,4-triazin-3-yl)thiomethyl-l-oxa-l-dethia-ceph-3-em-4-carboxylic acid], for which the “Minimum inhibitory concentration (MIC)” value in [1] is reported as 12.5; in [2], 0.39; with Escherichia coli GN206 it was 0.78; with Proteus mirabilis GN79, 0.20; in series [4], 0.39; in [5] it was 6.25. Besides, the “Minimum inhibitory concentration (MIC)” value turned out to be 50 in series [6]; 1.56 in [7]; 6.25 in series [8]; 0.20 in the series on Proteus vulgaris GN76; 25 in series [9]; 1.56 in series [10]. In addition, the “Minimum inhibitory concentration (MIC)” value was 0.78 in the series with Proteus rettgeri GN624, 0.20 in series [11], 1.56 in [12] and 0.39 in [13]. Besides, in the series on Pseudomonas aeruginosa, the “effective against Pseudomonas aeruginosa” value is “effective”. The “effective against Streptococcus faecalis” value in the series on Streptococcus faecalis is listed as “effective”.
